Laboratory results published in US20240199546A1, “INHIBITORS OF SOLUTE CARRIER FAMILY 6A MEMBER 19 (SLC6A19) AND METHODS OF USE THEREOF” (Maze Therapeutics, Inc., priority 2022, published 2024).

molecular target: T1, human SLC6A19 and TMEM27 (Homo sapiens, UniProt Q695T7); assay: Radiolabelled (3H) leucine uptake in CHO cells with doxycycline-inducible expression of human SLC6A19 and TMEM27 (Example B-1); format: cell-based; settings: CHO cells with doxycycline-inducible expression of human SLC6A19 and TMEM27, read-out: SLC6A19_Radioligand Uptake Assay IC50
T1 construct: expressed in transfected cells
T1 sequence (Q695T7 1-634): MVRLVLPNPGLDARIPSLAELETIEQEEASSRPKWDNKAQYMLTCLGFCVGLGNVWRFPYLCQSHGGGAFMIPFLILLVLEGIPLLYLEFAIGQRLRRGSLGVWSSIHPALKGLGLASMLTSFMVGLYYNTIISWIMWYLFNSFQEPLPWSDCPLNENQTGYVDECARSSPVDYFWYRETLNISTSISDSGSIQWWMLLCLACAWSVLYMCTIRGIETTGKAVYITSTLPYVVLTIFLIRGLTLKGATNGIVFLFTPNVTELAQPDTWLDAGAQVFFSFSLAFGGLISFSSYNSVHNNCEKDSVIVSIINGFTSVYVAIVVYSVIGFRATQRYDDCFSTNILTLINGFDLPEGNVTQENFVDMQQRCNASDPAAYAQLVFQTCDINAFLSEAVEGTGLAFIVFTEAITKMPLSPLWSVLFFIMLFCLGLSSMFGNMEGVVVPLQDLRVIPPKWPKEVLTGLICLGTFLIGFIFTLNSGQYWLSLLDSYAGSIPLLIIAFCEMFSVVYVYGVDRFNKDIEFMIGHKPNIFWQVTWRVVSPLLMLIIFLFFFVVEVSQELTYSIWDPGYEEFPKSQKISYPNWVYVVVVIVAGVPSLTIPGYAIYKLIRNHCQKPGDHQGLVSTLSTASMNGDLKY
T1 sequence (Q9HBJ8 15-222 partner): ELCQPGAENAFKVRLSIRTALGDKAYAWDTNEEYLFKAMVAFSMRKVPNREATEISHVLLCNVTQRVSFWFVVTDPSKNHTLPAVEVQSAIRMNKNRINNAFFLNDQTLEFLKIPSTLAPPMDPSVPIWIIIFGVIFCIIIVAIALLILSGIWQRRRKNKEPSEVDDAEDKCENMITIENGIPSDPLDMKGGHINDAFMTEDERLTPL
In short: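 CHO cells were induced with doxycycline for 18 h at 37 °C, washed in HBSS, then exposed to compounds for 1 h: 8-point, 3-fold dilutions in duplicate, 0.5% DMSO final. Uptake measured by scintillation counting after 2 h shaking. Activity normalized with positive control as 0% and DMSO as 100%.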

Row | IC50 [nM] | SMILES
1 | 889 | CC1(C(=O)NCc2cc3cc(Cl)c(CCn4ncnn4)cc3[nH]2)CC1 [Compound 584, N-((6-(2-(2H-tetrazol-2-yl)ethyl)-5-chloro-1H-indol-2-yl)methyl)-1-methylcyclopropane-1-carboxamide]
2 | 824 | Cc1cc(COc2cc3[nH]c(CNC(=O)[C@@H]4CCN4C)cc3cc2Cl)on1 [Compound 576, (S)-N-((5-chloro-6-((3-methylisoxazol-5-yl)methoxy)-1H-indol-2-yl)methyl)-1-methylazetidine-2-carboxamide]
3 | 340 | O=C(NCc1cc2cc(Cl)c(OCc3cscn3)cc2[nH]1)C12CC(C1)C2 [Compound 552, N-((5-chloro-6-(thiazol-4-ylmethoxy)-1H-indol-2-yl)methyl)bicyclo[1.1.1]pentane-1-carboxamide]
4 | 339 | C[C@@H]1CCN(C(=O)NCc2cc3cc(F)c(OCc4ccon4)cc3[nH]2)C1 [Compound 381, (R)-N-((5-fluoro-6-(isoxazol-3-ylmethoxy)-1H-indol-2-yl)methyl)-3-methylpyrrolidine-1-carboxamide]
5 | 3670 | COc1cc2cc(CNC(=O)C3(C)CC3)[nH]c2cc1CCn1ccnn1 [Compound 588, N-((6-(2-(1H-1,2,3-triazol-1-yl)ethyl)-5-methoxy-1H-indol-2-yl)methyl)-1-methylcyclopropane-1-carboxamide]
6 | 3540 | Cc1cc(COc2cc3[nH]c(CNC(=O)C(C)C4COC4)cc3cc2Cl)on1 (racemic) [Compound 545, (S)-N-((5-chloro-6-((3-methylisoxazol-5-yl)methoxy)-1H-indol-2-yl)methyl)-2-(oxetan-3-yl)propenamide and (R)-N-((5-chloro-6-((3-methylisoxazol-5-yl)methoxy)-1H-indol-2-yl)methyl)-2-(oxetan-3-yl)propanamide]
7 | 75.2 | Cc1cc(COc2cc3[nH]c(CNC(=O)C(C)F)cc3cc2Cl)on1 (racemic) [Compound 442, (S)-N-((5-chloro-6-((3-methylisoxazol-5-yl)methoxy)-1H-indol-2-yl)methyl)-2-fluoropropanamide and (R)-N-((5-chloro-6-((3-methylisoxazol-5-yl)methoxy)-1H-indol-2-yl)methyl)-2-fluoropropanamide]
8 | 444 | CC(C#N)C(=O)NCc1cc2cc(Cl)c(OCc3cscn3)cc2[nH]1 (racemic) [Compound 445, (S)-N-((5-chloro-6-(thiazol-4-ylmethoxy)-1H-indol-2-yl)methyl)-2-cyanopropanamide and (R)-N-((5-chloro-6-(thiazol-4-ylmethoxy)-1H-indol-2-yl)methyl)-2-cyanopropanamide]
9 | 634 | Cc1cc(COc2cc(F)c3cc(CNC(=O)N4CCC4)[nH]c3c2)on1 [Compound 427, N-((4-fluoro-6-((3-methylisoxazol-5-yl)methoxy)-1H-indol-2-yl)methyl)azetidine-1-carboxamide]
10 | 991 | CC1(C(=O)NCc2cc3cc(Cl)c(CNc4cccnc4)cc3[nH]2)CC1 [Compound 610, N-((5-chloro-6-((pyridin-3-ylamino)methyl)-1H-indol-2-yl)methyl)-1-methylcyclopropane-1-carboxamide]
11 | 847 | Cc1cc(COc2cc3[nH]c(CNC(=O)N4CCC(C(F)F)C4)cc3cc2Cl)on1 (stereo not shown) [Compound 377, N-((5-chloro-6-((3-methylisoxazol-5-yl)methoxy)-1H-indol-2-yl)methyl)-3-(difluoromethyl)pyrrolidine-1-carboxamide]
12 | 208 | Cc1cc(COc2cc3[nH]c(CNC(=O)C(C)C#N)cc3cc2Cl)on1 (single isomer, unassigned) [Compound 447, (S or R)-N-((5-chloro-6-((3-methylisoxazol-5-yl)methoxy)-1H-indol-2-yl)methyl)-2-cyanopropanamide]
13 | 372 | O=C(NCc1cc2cc(OC(F)(F)F)c(OCc3cocn3)cc2[nH]1)N1CCC1 [Compound 480, N-((6-(oxazol-4-ylmethoxy)-5-(trifluoromethoxy)-1H-indol-2-yl)methyl)azetidine-1-carboxamide]
14 | 7510 | Cc1cc(COc2cc3[nH]c(CNC(=O)[C@H]4CCCN4)cc3cc2Cl)on1 [Compound 618, (R)—N-((5-chloro-6-((3-methylisoxazol-5-yl)methoxy)-1H-indol-2-yl)methyl)pyrrolidine-2-carboxamide]
15 | 161 | Cc1cc(COc2cc3[nH]c(CNC(=O)C4(F)CC4)cc3cc2Cl)on1 [Compound 571, N-((5-chloro-6-((3-methylisoxazol-5-yl)methoxy)-1H-indol-2-yl)methyl)-1-fluorocyclopropane-1-carboxamide]
16 | 240 | O=C(NCc1cc2cc(Cl)c(CCc3ccon3)cc2[nH]1)N1CCC1 [Compound 595, N-((5-chloro-6-(2-(isoxazol-3-yl)ethyl)-1H-indol-2-yl)methyl)azetidine-1-carboxamide]
17 | 184 | COc1cc2cc(CNC(=O)C3(C)CC3)[nH]c2cc1CCn1nccn1 [Compound 591, N-((6-(2-(2H-1,2,3-triazol-2-yl)ethyl)-5-methoxy-1H-indol-2-yl)methyl)-1-methylcyclopropane-1-carboxamide]
18 | 336 | C[C@H]1CCN(C(=O)NCc2cc3cc(F)c(OCc4cscn4)cc3[nH]2)C1 [Compound 388, (S)-N-((5-fluoro-6-(thiazol-4-ylmethoxy)-1H-indol-2-yl)methyl)-3-methylpyrrolidine-1-carboxamide]

More lines, now with the values behind:

Row | SMILES | IC50 [nM]
19 | CN(C(=O)NCc1cc2cc(Cl)c(OCc3cscn3)cc2[nH]1)C1CC1 [Compound 359, 3-((5-chloro-6-(thiazol-4-ylmethoxy)-1H-indol-2-yl)methyl)-1-cyclopropyl-1-methylurea] | 231
20 | COCC(=O)NCc1cc2cc(Cl)c(OCc3cscn3)cc2[nH]1 [Compound 270, N-((5-chloro-6-(thiazol-4-ylmethoxy)-1H-indol-2-yl)methyl)-2-methoxyacetamide] | 110
21 | CSc1cc2cc(CNC(=O)C3(C)CC3)[nH]c2cc1OCc1cscn1 [Compound 348, 1-methyl-N-((5-(methylthio)-6-(thiazol-4-ylmethoxy)-1H-indol-2-yl)methyl)cyclopropane-1-carboxamide] | 516
22 | CC1CN(C(=O)NCc2cc3cc(Cl)c(OCc4cscn4)cc3[nH]2)C1 [Compound 80, N-((5-chloro-6-(thiazol-4-ylmethoxy)-1H-indol-2-yl)methyl)-3-methylazetidine-1-carboxamide] | 350
23 | Cc1cc(COc2cc3[nH]c(CNC(=O)CC4CCO4)cc3cc2Cl)on1 (stereo not shown) [Compound 245, N-((5-chloro-6-((3-methylisoxazol-5-yl)methoxy)-1H-indol-2-yl)methyl)-2-(oxetan-2-yl)acetamide] | 1190
24 | O=C(NCc1cc2cc(F)c(OCc3ccon3)cc2[nH]1)N1CCCC1 [Compound 116, N-((5-fluoro-6-(isoxazol-3-ylmethoxy)-1H-indol-2-yl)methyl)pyrrolidine-1-carboxamide] | 157
25 | CC1(C(=O)NCc2cc3cc(Cl)c(OCc4cscn4)cc3[nH]2)COC1 [Compound 277, N-((5-chloro-6-(thiazol-4-ylmethoxy)-1H-indol-2-yl)methyl)-3-methyloxetane-3-carboxamide] | 279
26 | CC(C)C(=O)NCc1cc2cc(F)c(OCc3ccon3)cc2[nH]1 [Compound 138, N-((5-fluoro-6-(isoxazol-3-ylmethoxy)-1H-indol-2-yl)methyl)isobutyramide] | 353
27 | Cc1cc(COc2cc3[nH]c(CNC(=O)N4CCCC4)cc3cc2F)on1 [Compound 118, N-((5-fluoro-6-((3-methylisoxazol-5-yl)methoxy)-1H-indol-2-yl)methyl)pyrrolidine-1-carboxamide] | 1110
28 | Cc1cc(COc2cc3[nH]c(CNC(=O)[C@@H](O)CF)cc3cc2Cl)on1 [Compound 247, (R)-N-((5-chloro-6-((3-methylisoxazol-5-yl)methoxy)-1H-indol-2-yl)methyl)-3-fluoro-2-hydroxypropanamide] | 770
29 | Cc1cc(COc2cc3[nH]c(CNC(=O)NCC(F)F)cc3cc2Cl)on1 [Compound 374, 1-((5-chloro-6-((3-methylisoxazol-5-yl)methoxy)-1H-indol-2-yl)methyl)-3-(2,2-difluoroethyl)urea] | 412
30 | CC1(C(=O)NCc2cc3cc(Cl)c(OCc4ncon4)cc3[nH]2)CC1 [Compound 319, N-((6-((1,2,4-oxadiazol-3-yl)methoxy)-5-chloro-1H-indol-2-yl)methyl)-1-methylcyclopropane-1-carboxamide] | 273
31 | CO[C@@H](C)C(=O)NCc1cc2cc(Cl)c(OCc3cc(C)no3)cc2[nH]1 [Compound 313, (S)-N-((5-chloro-6-((3-methylisoxazol-5-yl)methoxy)-1H-indol-2-yl)methyl)-2-methoxypropanamide] | 125
